Experimental data reported in patent publication US20150197492A1, “NOVEL INDENO[1,2-c]QUINOLIN-11-ONE DERIVATIVES, PREPARATION METHOD AND APPLICATION THEREOF” (National Defense Medical Center, priority 2014, published 2015).

Assays:
Format in all cases: cell-based
[1] = system: human PC-3 cells; test: Sulforhodamine B (SRB) assay, cytotoxicity against PC-3 cells; details: SRB assay, PC-3 cells
Outline: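 PC-3 cells in 5% FBS were fixed with 10% TCA after 24 h as T0, then treated with compound for 48 h, fixed, stained with 0.4% SRB in 1% acetic acid and solubilized in 10 mmol/L Trizma base. Absorbance was read at 515 nm. GI% = 100−[(Tx−T0)/(C−T0)]×100, and IC50 is the concentration halving total protein.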

[2] = system: 55 to 60 cancer cell lines; details: 10 μM, 48 hours, all tested cell lines
[3] = system: HL-60 (TB); test: cells; details: HL-60 (TB) (Leukemia), 10 μM, 48 hours
[4] = system: K-562; test: cells; details: K-562 (Leukemia), 10 μM, 48 hours
[5] = system: MOLT-4; test: cells; details: MOLT-4 (Leukemia), 10 μM, 48 hours
[6] = system: SR; test: cells; details: SR (Leukemia), 10 μM, 48 hours
[7] = system: NCI-H23; test: cells; details: NCI-H23 (Non-Small Cell Lung Cancer), 10 μM, 48 hours
[8] = system: NCI-H322M; test: cells; details: NCI-H322M (Non-Small Cell Lung Cancer), 10 μM, 48 hours
[9] = system: NCI-H460; test: cells; details: NCI-H460 (Non-Small Cell Lung Cancer), 10 μM, 48 hours
[10] = system: HCT-116; test: cells; details: HCT-116 (Colon Cancer), 10 μM, 48 hours
[11] = system: HCT-15; test: cells; details: HCT-15 (Colon Cancer), 10 μM, 48 hours
[12] = system: HT29; test: cells; details: HT29 (Colon Cancer), 10 μM, 48 hours
[13] = system: KM12; test: cells; details: KM12 (Colon Cancer), 10 μM, 48 hours
[14] = system: SW-620; test: cells; details: SW-620 (Colon Cancer), 10 μM, 48 hours
[15] = system: SF-268; test: cells; details: SF-268 (CNS Cancer), 10 μM, 48 hours
[16] = system: SF-295; test: cells; details: SF-295 (CNS Cancer), 10 μM, 48 hours
[17] = system: U251; test: cells; details: U251 (CNS Cancer), 10 μM, 48 hours
[18] = system: LOX IMVI; test: cells; details: LOX IMVI (Melanoma), 10 μM, 48 hours
[19] = system: M14; test: cells; details: M14 (Melanoma), 10 μM, 48 hours
[20] = system: SK-MEL-28; test: cells; details: SK-MEL-28 (Melanoma), 10 μM, 48 hours
[21] = system: IGROV1; test: cells; details: IGROV1 (Ovarian Cancer), 10 μM, 48 hours
[22] = system: OVCAR-3; test: cells; details: OVCAR-3 (Ovarian Cancer), 10 μM, 48 hours
[23] = system: OVCAR-4; test: cells; details: OVCAR-4 (Ovarian Cancer), 10 μM, 48 hours
[24] = system: SK-OV-3; test: cells; details: SK-OV-3 (Ovarian Cancer), 10 μM, 48 hours
[25] = system: A498; test: cells; details: A498 (Renal Cancer), 10 μM, 48 hours
[26] = system: ACHN; test: cells; details: ACHN (Renal Cancer), 10 μM, 48 hours
[27] = system: SN12C; test: cells; details: SN12C (Renal Cancer), 10 μM, 48 hours
[28] = system: TK-10; test: cells; details: TK-10 (Renal Cancer), 10 μM, 48 hours
[29] = system: PC-3; test: cells; details: PC-3 (Prostate Cancer), 10 μM, 48 hours
[30] = system: BT-549; test: cells; details: BT-549 (Breast Cancer), 10 μM, 48 hours

SMILES | Mean (mean growth percentage of the tested cancer cell lines) [2] [%] | growth percentage [3] [%] | growth percentage [4] [%] | growth percentage [5] [%] | growth percentage [6] [%] | growth percentage [7] [%] | growth percentage [8] [%] | growth percentage [9] [%] | growth percentage [10] [%] | growth percentage [11] [%] | growth percentage [12] [%] | growth percentage [13] [%] | growth percentage [14] [%] | growth percentage [15] [%] | growth percentage [16] [%] | growth percentage [17] [%] | growth percentage [18] [%] | growth percentage [19] [%] | growth percentage [20] [%] | growth percentage [21] [%] | also measured
O=C1c2cc(Cl)ccc2-c2c(N3CCOCC3)nc3ccccc3c21 [SJ-8, 9-Chloro-6-morpholino-11H-indeno[1,2-c]quinolin-11-one] | 93.66 | 97.09 | 89.01 | 88.74 | 85.94 | 90.40 | 91.28 | 102.14 | 93.64 | 80.29 | 91.34 | 109.99 | 103.71 | 103.58 | 102.43 | 95.72 | 91.20 | 106.99 | 113.81 | 86.47 | IC50 ([1]; Homo sapiens, 48 hours, read-out: IC50): > 10 µM; growth percentage [22]: 102.34%; growth percentage [23]: 96.67%; growth percentage [24]: 107.26%; growth percentage [25]: 93.88%; growth percentage [26]: 81.66%; growth percentage [27]: 96.95%; growth percentage [28]: 101.98%; growth percentage [29]: 79.64%; growth percentage [30]: 93.95%
O=C1c2cc(Cl)ccc2-c2c(N3CCSCC3)nc3ccccc3c21 [SJ-9, 9-Chloro-6-thiomorpholino-11H-indeno[1,2-c]quinolin-11-one] | 94.75 | 94.50 | 100.89 | 93.29 | 99.53 | 94.33 | 92.29 | 93.32 | 89.08 | 97.88 | 95.52 | 97.97 | 91.88 | 96.13 | 93.33 | 111.96 | 100.04 | 101.69 | 110.84 | 72.45 | Toxicity (%) [1]: 33.3%; GI % (10 μM) ([1]; 10 μM): 100%; growth percentage [22]: 96.58%; growth percentage [23]: 98.19%; growth percentage [24]: 84.60%; growth percentage [25]: 99.15%; growth percentage [26]: 86.42%; growth percentage [27]: 93.10%; growth percentage [28]: 121.79%; growth percentage [29]: 87.77%; growth percentage [30]: 92.91%
